Source: patent publication US11427615B2, “Peptide compound and application thereof, and composition containing peptide compound” (XDCEXPLORER (SHANGHAI) CO., LTD., priority 2017, dated 2022)
Read-outs that look alike come from different tables or passages of the source. Non-standard residues stand in square brackets, D forms with d. Residues, ends and D or L forms follow the SMILES beside them. Groups on a side chain read outwards from the residue. *: point of attachment. X1 = CCCCCCCCCCCC(=O)NCCOCCOCCOCCOCCOCCSC1CC(=O)N(CCCC(=O)*)C1=O; X2 = CCCCCCCCCCCC(=O)NCCOCCOCCOCCOCCOCCn1cc(CC(=O)*)nn1; dPhe(2,4-Cl2) = N[C@H](Cc1ccc(Cl)cc1Cl)C(=O)O; PEG8 = NCCOCCOCCOCCOCCOCCOCCOCCOCCC(=O)O; Pro(4,4-F2) = O=C(O)[C@@H]1CC(F)(F)CN1; Arg(Me) = CNC(=N)NCCC[C@H](N)C(=O)O; Palmitoyl = CCCCCCCCCCCCCCCC(=O)*; Hyp = O=C(O)[C@@H]1C[C@@H](O)CN1; Gly(cPr) = N[C@H](C(=O)O)C1CC1; AllylGly = C=CC[C@H](N)C(=O)O; PEG4 = NCCOCCOCCOCCOCCC(=O)O; Ac6c = NC1(C(=O)O)CCCCC1; Aze = O=C(O)[C@@H]1CCN1; azaGly = NNC(=O)O

Key:
[1] = target: T1, human kiss1 receptor (GPR54) (Homo sapiens, UniProt Q969F8); test: Kiss1 receptor (GPR54) binding activity of agonists, FRET detection in NFAT-bla CHO-K1 cells; type: cell-based
T1 construct: host or cells: NFAT-bla CHO-K1 cells (Chinese hamster ovary), purchased recombinant cell line

[2] = Plasma stability, LC-MS/MS; type: in vitro ADME; details: rat plasma, 37° C., final concentration 500 ng/ml, time points 0 minutes, 1, 2 and 4 hours; calculated half-life; read-out: Rat plasma (T½ (h)) (converted)
Description: Effect Embodiment 2 Experimental Data on Plasma Stability of Some Compounds
1. Preparation of 50 mM Phosphate Buffer:
The 5.750 g Na2HPO4, 1.141 g NaH2PO4. and 4.095 g NaCl (Shanghai Titan) weighed was dissolved in 1000 mL ultrapure water and the pH was adjusted to 7.4 to give 50 mM phosphate buffer containing 70 mM NaCl. The prepared phosphoric acid buffer solution was stored in the refrigerator at 4° C. and was valid for one week.
2. Preparation of compound stock solution:
1). 5 mg/mL of test compound: 5 mg of compound was weighted and dissolved in 1 mL of DMSO.
2). 20 mM control: 2.728 mg of Fuka was dissolved in 0.5 mL of DMSO. 3.878 mg of benzalkonium bromide was dissolved in 0.5 mL of DMSO (Amresco).
3. Preparation of experimental plasma:
The frozen plasma (human: Shanghai wise chemistry; Rats and mice: Shanghai Sciple-Bikai; Dogs and monkeys: Suzhou Xishan Zhongke) were taken out of the −80° C. refrigerator, immediately placed in a 37° C. water bath, slightly shaken to melt it, then the thawed plasma was poured into a centrifuge tube, centrifuged at 3000 rpm for 8 min, and the supernatant was taken for experiments. The pH value of plasma was detected by a pH Meter & Sensor (METTLER TOLEDO). Only plasma with a pH value between 7.4 and 8 was used in the experiment. The plasma was placed on an ice bath for later use.
4. Preparation of administration solution:
1). 125 µg/ml test compound solution: 5 μL of 5 mg/mL test compound (see step 2) was added into 195 μL DMSO; 500 μM control solution: 20 mM control stock solution (see step 2) was added to 195 μL DMSO.
2). 0.5% BSA phosphate buffer solution: 0.05 g BSA was added to 10 mL phosphate buffer solution (see step 1);
3). 5 µg/ml of test compound administration solution: 40 μL of 125 μg/mL of test compound solution was added into 960 μL 0.5% BSA phosphate buffer solution, stirred and mixed evenly, and the administration solution was preheated in a 37° C. water bath for 5 minutes.
20 μM reference substance administration solution: 40 μL of 500 μM reference substance administration solution was added into 960 μL 0.5% BSA phosphate buffer solution, stirred and mixed evenly, and the administration solution was preheated in a 37° C. water bath for 5 minutes.
5. 10 μL of 5 μg/mL of the test compound and 20 μM of the control substance administration solution were respectively added to the wells set at different time points (0 minutes, 1 hour, 2 hours and 4 hours) on the 96-well plate, and the number of duplicate samples was 3.
6. 500 μL of ACN (IS) containing 5% FA was added to the well set at 0 minute hour, then 90 μL of plasma was added, after mixing, sealing film was pasted and placed at 4° C. (number of duplicate samples was 3).
7. 90 μL of plasma was added to the wells with set time points of 1 hour, 2 hours and 4 hours respectively, the number of duplicate samples was 3, and timing was started (the final concentration of the test compound was 500 ng/ml; The control was 2 μM).
9. All samples (0 minutes, 1 hour, 2 hours and 4 hours) at different time points on a 96-well plate were shaken for 10 minutes at 600 rpm/min on an oscillator (MTS 2/4, IKA), and then the samples were centrifuged for 15 minutes at 5594×g in a centrifuge (Multifuge×3R, thermo Fisher).
10. 150 μL of supernatant was taken from the centrifuged sample and sent to LC-MS/MS for analysis (conventional polypeptide LC-MS/MS analysis method).

[3] = GPR54, measured according to the method of effect Embodiment 1, preliminary data, read-out: Preliminary measurement data (GPR54) EC50

T1 sequence (Q969F8 whole entry): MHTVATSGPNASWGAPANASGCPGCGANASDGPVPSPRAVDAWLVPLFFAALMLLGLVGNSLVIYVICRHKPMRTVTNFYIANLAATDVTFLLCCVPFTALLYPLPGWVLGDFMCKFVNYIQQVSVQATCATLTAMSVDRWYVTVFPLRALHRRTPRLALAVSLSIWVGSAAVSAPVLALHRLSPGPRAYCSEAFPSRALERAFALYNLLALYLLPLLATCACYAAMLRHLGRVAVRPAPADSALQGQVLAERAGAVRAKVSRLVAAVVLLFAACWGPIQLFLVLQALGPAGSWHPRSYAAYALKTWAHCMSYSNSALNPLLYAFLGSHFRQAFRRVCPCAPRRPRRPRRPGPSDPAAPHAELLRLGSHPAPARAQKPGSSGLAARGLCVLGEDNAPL

SMILES | EC50 [1, 3] | EC50 ([1]; NFAT-bla CHO-K1 cells that express human kiss1 receptor (GPR54), FRET, cells cultured with compound for 4 hours, read-out: GPR54 EC50/nM) | half-life at 500 ng/ml [2] | EC50 ([1]; human kiss1 receptor (GPR54), NFAT-bla CHO-K1 cells, FRET, preliminary data, method of effect Embodiment 1, read-out: Preliminary measurement data (GPR54) EC50)
CNC(=N)NCCC[C@H](NC(=O)[C@H](CC(C)C)NC(=O)NNC(=O)[C@H](Cc1ccccc1)NC(=O)[C@@H](NC(=O)[C@H](CC(N)=O)NC(=O)[C@@H]1C[C@@H](O)CN1C(=O)[C@@H](Cc1ccc(O)cc1)NC(C)=O)[C@@H](C)O)C(=O)N[C@@H](Cc1c[nH]c2ccccc12)C(N)=O [YA-3, Ac-(D-Tyr)-Hyp-Asn-Thr-Phe-azaGly-Leu-Arg(Me)-trp-NH2] (Ac-[dY][Hyp]NTF[azaGly]L[Arg(Me)]W-NH2) | 0.03 nM | 0.03 nM | 10.1 h | 
CNC(=N)NCCC[C@H](NC(=O)[C@H](CC(C)C)NC(=O)NNC(=O)[C@H](Cc1ccccc1)NC(=O)[C@@H](NC(=O)[C@H](CC(N)=O)NC(=O)[C@@H]1C[C@@H](O)CN1C(=O)[C@@H](Cc1ccc(O)cc1)NC(=O)CCOCCOCCOCCOCCNC(C)=O)[C@@H](C)O)C(=O)N[C@@H](Cc1c[nH]c2ccccc12)C(N)=O [YA-150, Ac-PEG4-(D-Tyr)-Hyp-Asn-Thr-Phe-azaGly-Leu-Arg(Me)-Trp-NH2] (Ac-[PEG4][dY][Hyp]NTF[azaGly]L[Arg(Me)]W-NH2) | 0.004 nM |  | 6.67 h | 
CCCCCCCCCCCCCCCC(=O)NCCOCCOCCOCCOCCOCCOCCOCCOCCC(=O)NCC(=O)NCC(=O)N[C@H](Cc1ccc(O)cc1)C(=O)N1C[C@H](O)C[C@H]1C(=O)N[C@@H](CC(N)=O)C(=O)N[C@H](C(=O)N[C@@H](Cc1ccccc1)C(=O)NNC(=O)N[C@@H](CC(C)C)C(=O)N[C@@H](CCCNC(=N)NC)C(=O)N[C@@H](Cc1c[nH]c2ccccc12)C(N)=O)[C@@H](C)O [YA-156, Palm-PEG8-Gly-Gly-(D-Tyr)-Hyp-Asn-Thr-Phe-azaGly-Leu-Arg(Me)-Trp-NH2] ({Palmitoyl-PEG8}-GG[dY][Hyp]NTF[azaGly]L[Arg(Me)]W-NH2) | 0.045 nM |  | 44.4 h | 
CCCCCCCCCCCCCCCC(=O)NCCOCCOCCOCCOCCOCCOCCOCCOCCC(=O)NCCCC[C@H](NC(C)=O)C(=O)NCC(=O)NCC(=O)N[C@H](Cc1ccc(O)cc1)C(=O)N1C[C@H](O)C[C@H]1C(=O)N[C@@H](CC(N)=O)C(=O)N[C@H](C(=O)N[C@@H](Cc1ccccc1)C(=O)NNC(=O)N[C@@H](CC(C)C)C(=O)N[C@@H](CCCNC(=N)NC)C(=O)N[C@@H](Cc1c[nH]c2ccccc12)C(N)=O)[C@@H](C)O [YA-157, Ac-Lys(Palm-PEG8)-Gly-Gly-(D-Tyr)-Hyp-Asn-Thr-Phe-azaGly-Leu-Arg(Me)-Trp-NH2] (Ac-K([PEG8-Palmitoyl])GG[dY][Hyp]NTF[azaGly]L[Arg(Me)]W-NH2) | 0.03 nM |  | 6.67 h | 
CNC(=N)NCCC[C@H](NC(=O)[C@H](CC(C)C)NC(=O)NNC(=O)[C@H](Cc1ccccc1)NC(=O)[C@@H](NC(=O)[C@H](CC(N)=O)NC(=O)C1(NC(=O)[C@@H](Cc2ccc(O)cc2)NC(C)=O)CCCCC1)[C@@H](C)O)C(=O)N[C@@H](Cc1c[nH]c2ccccc12)C(N)=O [YA-172, Ac-D-Tyr-A6c-Asn-Thr-Phe-azaGly-Leu-Arg(Me)-Trp-NH2] (Ac-[dY][Ac6c]NTF[azaGly]L[Arg(Me)]W-NH2) |  |  | 9.42 h | 
CNC(=N)NCCC[C@H](NC(=O)[C@H](CC(C)C)NC(=O)C1(NC(=O)[C@H](Cc2ccccc2)NC(=O)[C@@H](NC(=O)[C@H](CC(N)=O)NC(=O)[C@@H]2C[C@@H](O)CN2C(=O)[C@@H](Cc2ccc(O)cc2)NC(C)=O)[C@@H](C)O)CCCCC1)C(=O)N[C@@H](Cc1c[nH]c2ccccc12)C(N)=O [YA-175, Ac-D-Tyr-Hyp-Asn-Thr-Phe-A6c-Leu-Arg(Me)-Trp-NH2] (Ac-[dY][Hyp]NTF[Ac6c]L[Arg(Me)]W-NH2) | 0.132 nM |  | 2.05 h | 
CNC(=N)NCCC[C@H](NC(=O)[C@H](CC(C)C)NC(=O)NNC(=O)[C@H](Cc1ccccc1)NC(=O)[C@@H](NC(=O)[C@H](CC(N)=O)NC(=O)[C@@H]1CC(F)(F)CN1C(=O)[C@@H](Cc1ccc(Cl)cc1Cl)NC(C)=O)[C@@H](C)O)C(=O)N[C@@H](Cc1c[nH]c2ccccc12)C(N)=O [YA-180, Ac-[D-Phe(2,4-DiCl)]-Pro(diF)-Asn-Thr-Phe-azaGly-Leu-Arg(Me)-Trp-NH2] (Ac-[dPhe(2,4-Cl2)][Pro(4,4-F2)]NTF[azaGly]L[Arg(Me)]W-NH2) |  |  | 9.63 h | 
CCCCCCCCCCCC(=O)NCCOCCOCCOCCOCCOCCSC1CC(=O)N(CCCC(=O)N[C@H](Cc2ccc(O)cc2)C(=O)N2C[C@H](O)C[C@H]2C(=O)N[C@@H](CC(N)=O)C(=O)N[C@H](C(=O)N[C@@H](Cc2ccccc2)C(=O)NNC(=O)N[C@@H](CC(C)C)C(=O)N[C@@H](CCCNC(=N)NC)C(=O)N[C@@H](Cc2c[nH]c3ccccc23)C(N)=O)[C@@H](C)O)C1=O (stereo partly drawn) [YA-325, Dodecanoy-(NH-PEG5-CH2CH2S)-(maleimide-butanoyl-)-(D-Tyr)-Hyp-Asn-Thr-Phe-azaG-Leu-Arg(Me)-Trp-NH2] (X1-[dY][Hyp]NTF[azaGly]L[Arg(Me)]W-NH2) |  |  | 4.26 h | 
CCCCCCCCCCCC(=O)NCCOCCOCCOCCOCCOCCn1cc(CC(=O)N[C@H](Cc2ccc(O)cc2)C(=O)N2C[C@H](O)C[C@H]2C(=O)N[C@@H](CC(N)=O)C(=O)N[C@H](C(=O)N[C@@H](Cc2ccccc2)C(=O)NNC(=O)N[C@@H](CC(C)C)C(=O)N[C@@H](CCCNC(=N)NC)C(=O)N[C@@H](Cc2c[nH]c3ccccc23)C(N)=O)[C@@H](C)O)nn1 [YA-326, Dodecanoyl-NH-PEG5-1,2,3-Triazole-Cyclic-Butanoyl-(D-Tyr)-Hyp-Asn-Thr-Phe-Azag-Leu-Arg(Me)-Trp-NH2] (X2-[dY][Hyp]NTF[azaGly]L[Arg(Me)]W-NH2) |  |  | 4.97 h | 
C=CC[C@H](NC(=O)[C@H](Cc1ccccc1)NC(=O)[C@@H](NC(=O)[C@H](CC(N)=O)NC(=O)[C@@H]1C[C@@H](O)CN1C(=O)[C@@H](Cc1ccc(O)cc1)NC(C)=O)[C@@H](C)O)C(=O)N[C@@H](CC(C)C)C(=O)N[C@@H](CCCNC(=N)NC)C(=O)N[C@@H](Cc1c[nH]c2ccccc12)C(N)=O [YA-350, Ac-(D-Tyr)-Hyp-Asn-Thr-Phe-Alg-Leu-Arg(Me)-Trp-NH2] (Ac-[dY][Hyp]NTF[AllylGly]L[Arg(Me)]W-NH2) |  |  | 0.22 h | 
CNC(=N)NCCC[C@H](NC(=O)[C@H](CC(C)C)NC(=O)NNC(=O)[C@H](Cc1ccccc1)NC(=O)C1(NC(=O)[C@H](CC(N)=O)NC(=O)[C@@H]2C[C@@H](O)CN2C(=O)[C@@H](Cc2ccc(O)cc2)NC(C)=O)CCCCC1)C(=O)N[C@@H](Cc1c[nH]c2ccccc12)C(N)=O [YA-387, Ac-(D-Tyr)-Hyp-Asn-A6c-Phe-azaGly-Leu-Arg(Me)-Trp-NH2] (Ac-[dY][Hyp]N[Ac6c]F[azaGly]L[Arg(Me)]W-NH2) | 0.041 nM |  |  | 
CNC(=N)NCCC[C@H](NC(=O)[C@H](CC(C)C)NC(=O)NNC(=O)[C@H](Cc1ccccc1)NC(=O)[C@@H]1CCN1C(=O)[C@H](CC(N)=O)NC(=O)[C@@H]1C[C@@H](O)CN1C(=O)[C@@H](Cc1ccc(O)cc1)NC(C)=O)C(=O)N[C@@H](Cc1c[nH]c2ccccc12)C(N)=O [YA-388, Ac-(D-Tyr)-Hyp-Asn-Aze-Phe-azaGly-Leu-Arg(Me)-Trp-NH2] (Ac-[dY][Hyp]N[Aze]F[azaGly]L[Arg(Me)]W-NH2) | 0.058 nM |  |  | 
CNC(=N)NCCC[C@H](NC(=O)[C@H](CC(C)C)NC(=O)[C@@H](NC(=O)[C@H](Cc1ccccc1)NC(=O)[C@@H](NC(=O)[C@H](CC(N)=O)NC(=O)[C@@H]1C[C@@H](O)CN1C(=O)[C@@H](Cc1ccc(O)cc1)NC(C)=O)[C@@H](C)O)C1CC1)C(=O)N[C@@H](Cc1c[nH]c2ccccc12)C(N)=O [YA-396, Ac-(D-Tyr)-Hyp-Asn-Thr-Phe-Cpg-Leu-Leu-Arg(Me)-Trp-NH2] (Ac-[dY][Hyp]NTF[Gly(cPr)]L[Arg(Me)]W-NH2) |  |  |  | 1.19 nM
